From ChEMBL document CHEMBL1201862, “PubChem BioAssay data set” (2004)
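Briefly, cells in 96-well plates were exposed to five compound concentrations for 48 h, and endpoints were estimated by linear interpolation. The concentration for 50% growth inhibition is given as GI50.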 Calls of active or inactive are those of the source. No stated cut-off is given here; in the data, active = GI50 up to about 1.1 µM and inactive = higher.

What was measured:
Experiment in all cases: DTP human tumour cell line panel, 48 h
[1] = test system: COLO 205
[2] = test system: SF-268
[3] = test system: OVCAR-4
[4] = test system: OVCAR-3
[5] = test system: UACC-62
[6] = test system: OVCAR-8
[7] = test system: NCI-H522
[8] = test system: ACHN
[9] = test system: SF-539
[10] = test system: SNB-19
[11] = test system: Malme-3M
[12] = test system: UACC-257
[13] = test system: M14
[14] = test system: HT-29
[15] = test system: HCC 2998
[16] = test system: HOP-62
[17] = test system: SK-MEL-28
[18] = test system: RXF 393

Measured: GI50

O=C(Nc1ccccc1)n1cc(-c2ccccn2)c(N2CCOCC2)n1
inactive: [1] 5.14 µM | [2] > 100 µM | [3] > 100 µM | [4] 2.12 µM | [5] 5.62 µM | [6] 46 µM | [7] 2.56 µM | [8] 36.6 µM | [9] 6.73 µM | [10] 9.57 µM | [11] 2.54 µM | [12] 17.7 µM | [13] 8.91 µM | [14] 2.69 µM | [15] 21.7 µM | [16] 6.59 µM

N#CC(c1ccc(Cl)cc1)c1cccc(Cl)n1 (stereo unspecified)
inactive: [1] 67.1 µM | [17] 86.9 µM | [2] 38.4 µM | [3] 40 µM | [4] 34 µM | [5] 42.6 µM | [6] > 100 µM | [7] 22.4 µM | [8] 32.7 µM | [10] > 100 µM | [11] 74.5 µM | [12] 60.7 µM | [13] 79.8 µM | [14] 83.6 µM | [15] 61 µM | [16] 91 µM

COc1ccc([C@@H]2OC(=O)C3C2C(=O)O[C@H]3c2ccc(OC)cc2)cc1 (stereo partly specified)
inactive: [1] > 100 µM | [17] > 100 µM | [3] > 100 µM | [4] > 100 µM | [18] 76.4 µM | [5] > 100 µM | [6] > 100 µM | [8] > 100 µM | [9] > 100 µM | [10] > 100 µM | [12] > 100 µM | [14] > 100 µM | [15] > 100 µM | [16] > 100 µM

O=C1C2=C(CCCCC2)C2CCCCC12O (stereo unspecified)
inactive: [1] > 100 µM | [17] > 100 µM | [2] > 100 µM | [4] > 100 µM | [18] > 100 µM | [5] > 100 µM | [6] > 100 µM | [7] > 100 µM | [8] > 100 µM | [9] > 100 µM | [10] > 100 µM | [11] > 100 µM | [12] > 100 µM | [13] > 100 µM | [14] > 100 µM | [15] > 100 µM | [16] > 100 µM

CCOC(=O)[C-]([N+]#N)[Si](C)(C)C
inactive: [1] > 100 µM | [17] 18.5 µM | [2] 21.6 µM | [3] > 100 µM | [4] > 100 µM | [18] > 100 µM | [5] 72.4 µM | [6] > 100 µM | [8] > 100 µM | [9] > 100 µM | [10] > 100 µM | [11] > 100 µM | [12] 59.3 µM | [14] > 100 µM | [15] > 100 µM | [16] 20.5 µM

c1ccc(COCC2OC3c4ccccc4COC3C2OCc2ccccc2)cc1 (stereo unspecified)
inactive: [1] > 100 µM | [17] > 100 µM | [3] > 100 µM | [4] > 100 µM | [18] 32 µM | [5] 52.7 µM | [6] > 100 µM | [8] > 100 µM | [9] > 100 µM | [10] > 100 µM | [11] > 100 µM | [12] 61.2 µM | [13] > 100 µM | [14] 99.1 µM | [15] > 100 µM

COC(=O)C1=C(C(=O)OC)C2C(C)=CC(C)=CN2C(C#N)=C(SC)S1 (stereo unspecified)
inactive: [1] 17.4 µM | [17] 19.3 µM | [2] 20.6 µM | [4] 28.4 µM | [18] 16.1 µM | [5] > 10 µM | [6] 22.4 µM | [7] 16.1 µM | [8] 28.4 µM | [9] 19.2 µM | [10] 52.4 µM | [11] 24.7 µM | [12] 24.3 µM | [13] 18 µM | [14] 21.1 µM | [15] 37.2 µM | [16] 51.8 µM

O=C(COc1ccc(Cl)cc1)N1CCN(C(=O)COc2ccc(Cl)cc2)c2ccccc21
inactive: [1] 45.2 µM | [17] 21.2 µM | [2] 41.6 µM | [4] 54.6 µM | [18] 47.6 µM | [6] 53.2 µM | [7] 22.5 µM | [8] 33.6 µM | [9] > 100 µM | [11] 36.6 µM | [12] 25.2 µM | [14] 50.5 µM | [15] > 100 µM | [16] > 100 µM

C[N+](C)(C)CC(=O)N/N=C(\CCC(=O)NCCc1ccccc1)CC(=O)c1ccccc1
inactive: [1] > 100 µM | [2] > 100 µM | [3] > 100 µM | [4] > 100 µM | [5] > 100 µM | [6] > 100 µM | [7] > 100 µM | [8] > 100 µM | [9] > 100 µM | [10] > 100 µM | [11] > 100 µM | [12] > 100 µM | [13] > 100 µM | [14] > 100 µM | [15] > 100 µM | [16] > 100 µM
